Consider 59 compounds from patent US8946234B2, “Halogen-substituted compounds” (Bayer CropScience AG, priority 2008, dated 2015).

One data set can be described thus: physchem.
Conditions: not given
It is filed as physicochemical. In a few lines:
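Following EEC Directive 79/831 Annex V.A8, logP is obtained from retention on a 1.8 micron C18 column (50×4.6 mm) at 55 °C and 2.0 ml/min. Elution ran 10→95% acetonitrile (0.1% formic acid) against water (0.09% formic acid) in 4.25 min, held 1.25 min; mass detection used.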
Turning to `CN(C(=O)c1c(C(F)(F)F)c(C(F)(F)C(F)(F)F)nn1C)c1ccc(Cl)c(C(=O)NCc2ccccc2)c1` [Ik-134], the logP is 3.94^a).

`Cn1nc(C2CC2)c(C(F)(F)F)c1C(=O)Nc1ccc(Cl)c(C(=O)NC2CC2)c1` [Ik-261]: the logP is recorded as 2.78^a).

On to `Cc1nc(C(F)(F)F)ncc1C(=O)Nc1ccc(Cl)c(C(=O)NCC(F)(F)F)c1` [Ib-20], for which the logP was 2.65^a).

As for `Cn1nc(C(F)(F)C(F)(F)F)c(C(F)(F)F)c1C(=O)Nc1cccc(C(=O)NCc2ccccc2)c1` [Ik-14], the logP is on record as 3.77^a).

In the case of `C=CCNC(=O)c1cc(NC(=O)c2ccc(C(F)(F)F)nc2C)c(C)cc1Cl` [Ir-8], the logP is on record as 2.45^a).

As to `Cn1nc(OCC(F)(F)F)c(Br)c1C(=O)Nc1ccc(Cl)c(C(=O)NC2CC2)c1` [Ik-256], the logP is 2.87^a).

With `Cn1nc(C(F)(F)C(F)(F)F)c(Br)c1C(=O)Nc1ccc(Cl)c(C(=O)NC2CC2)c1` [Ik-26], the logP is recorded as 3.22^a).

In the case of `Cn1nc(C(F)(F)C(F)(F)F)c(C(F)(F)F)c1C(=O)Nc1ccc(Cl)c(C(=O)OCC(=O)NCO)c1` [Ik-115], the logP is on record as 2.93^a).

As to `C=CCc1c(C(F)(F)C(F)(F)F)nn(C)c1C(=O)Nc1ccc(Cl)c(C(=O)NC2CC2)c1` [Ik-262], the logP is 3.37^a).

In the case of `O=C(NCc1ccccc1)c1cc(NC(=O)c2cnc(C(F)(F)C(F)(F)F)nc2C(F)(F)C(F)(F)F)ccc1Cl` [Ib-35], the logP is given as 4.20^a).

As for `O=C(NCC(F)(F)F)c1cc(NC(=O)c2cnc(C(F)(F)F)nc2C(F)(F)F)ccc1Cl` [Ib-4], the logP is 3.14^a).

For the compound `Cn1nc(C(F)(F)C(F)(F)F)c(C(F)(F)F)c1C(=O)Nc1ccc(Br)c(C(=O)NC2CC2)c1` [Ik-175], the logP is reported as 3.39^a).

Turning to `Cc1nc(C(F)(F)C(F)(F)F)nc(C)c1C(=O)Nc1ccc(Cl)c(C(=O)NC2CC2)c1` [Ib-8], the logP was 2.82^a).

Regarding `COC(=O)COC(=O)c1cc(NC(=O)c2c(C(F)(F)F)c(C(F)(F)C(F)(F)F)nn2C)ccc1Cl` [Ik-107], the logP is recorded as 4.03^a).

As for `O=C(NCc1ccccc1)c1cc(NC(=O)c2cnc(C(F)(F)F)nc2C(F)(F)F)ccc1Cl` [Ib-6], the logP was 3.39^a).

As to `O=C(NCC(F)(F)F)c1cc(NC(=O)c2nccc(C(F)(F)F)c2Cl)ccc1Cl` [Ie-3], the logP was 2.88^a).

On to `Cn1nc(C(F)(F)C(F)(F)F)c(C(F)(F)F)c1C(=O)Nc1cc(C(=O)NCC(F)(F)F)c(Cl)cn1` [Ik-317], for which the logP is on record as 3.61^a).

Regarding `Cn1nc(C(F)(F)C(F)(F)C(F)(F)C(F)(F)F)c(I)c1C(=O)Nc1ccc(Cl)c(C(=O)NCC=CCl)c1` [Ik-269], the logP was 4.27^a).

Regarding `Cn1nc(C(F)(F)F)c(C(F)(F)F)c1C(=O)Nc1ccc(Cl)c(C(=O)NCC=CCl)c1` [Ik-196], the logP is on record as 3.28^a).

For `Cn1nc(OCC(F)(F)F)c(Br)c1C(=O)Nc1ccc(Cl)c(C(=O)NCC(F)(F)F)c1` [Ik-257], the logP was 3.26^a).

Consider `Cc1nc(C(F)(F)F)ccc1C(=O)Nc1ccc(Cl)c(C(=O)NC2CC2)c1` [Ir-2], for which the logP is on record as 2.27^a).

With `Cn1nc(C(F)(F)C(F)(F)F)c(C(F)(F)F)c1C(=O)Nc1cc(Br)c(Br)c(C(=O)NCc2ccccc2)c1` [Ik-208], the logP is recorded as 4.42^a).

With `Cn1nc(OCC(F)(F)F)cc1C(=O)Nc1ccc(Cl)c(C(=O)NC2CC2)c1` [Ik-247], the logP was 2.55^a).

In the case of `COCn1nc(C(F)(F)C(F)(F)F)c(C(F)(F)F)c1C(=O)Nc1ccc(Cl)c(C(=O)NC2CC2)c1` [Ik-219], the logP is given as 3.50^a).

As for `Cn1nc(OCC(F)(F)F)c(Cl)c1C(=O)Nc1ccc(Cl)c(C(=O)NCC(F)(F)F)c1` [Ik-243], the logP is listed as 3.27^a).

On to `CSc1c(Br)cc(NC(=O)c2c(C(F)(F)F)c(C(F)(F)C(F)(F)F)nn2C)cc1C(=O)NC1CC1` [Ik-198], for which the logP is 3.87^a).

As for `Cn1nc(-c2cc(C(F)(F)F)cc(C(F)(F)F)c2)c(C(F)(F)F)c1C(=O)Nc1ccc(Cl)c(C(=O)NCC(F)(F)F)c1` [Ik-258], the logP is on record as 4.46^a).

Regarding `Cc1nc(C(F)(F)C(F)(F)F)ncc1C(=O)Nc1ccc(Cl)c(C(=O)NCC=CCl)c1` [Ib-25], the logP is 3.2^a).

For `Cn1nc(C(F)(F)F)c(Cl)c1C(=O)Nc1ccc(Cl)c(C(=O)NCc2ccccc2)c1` [Ik-20], the logP is recorded as 3.46^a).

Staying with this data set, now noted: HPLC method a), eluent acetonitrile/water with formic acid; read-out: logP.
On to `CCOC(=O)c1cnc(C(F)(F)C(F)(F)C(F)(F)F)nc1C(F)(F)F` [Ethyl 2-(heptafluoropropyl)-4-(trifluoromethyl)pyrimidine-5-carboxylate], for which the chromatographic logP was determined as 4.32.

As for `Cn1cc(Br)c(C(F)(F)C(F)(F)C(F)(F)F)n1` [4-Bromo-1-methyl-3-heptafluoropropyl-1H-pyrazole], the chromatographic logP was found to be 3.53.

Consider `Cn1nc(C(F)(F)C(F)(F)C(F)(F)F)c(Br)c1C(=O)O` [4-Bromo-1-methyl-3-heptafluoropropyl-1H-pyrazole-5-carboxylic acid], for which the chromatographic logP stood at 2.26.

The data set is the same for the next values; noted with them: HPLC phase inversion (reversed-phase) C18 column, HPLC method a), eluent acetonitrile/water with formic acid; read-out: logP.
Take `Cn1nc(C(F)(Cl)C(F)(F)F)c(Br)c1C(=O)O` (centres unmarked) [4-Bromo-1-methyl-3-(1-chloro-1,2,2,2-tetrafluoroethyl)-1H-pyrazole-5-carboxylic acid]: the chromatographic logP turned out to be 2.43.

Turning to `COC(=O)c1cc(N)ncc1Cl` [methyl 2-amino-5-chloroisonicotinate], the chromatographic logP came to 1.3.

A further data set in a line: logP by HPLC on a C18 phase inversion column, EEC Directive 79/831 Annex V.A8, method b) (HP1100, 5-95% acetonitrile in 1.70 min). The conditions noted are these: HPLC method b). It is filed as physicochemical. The procedure: ^b) Note regarding the determination of the log P values and mass detection: The log P values given were determined in accordance with EEC Directive 79/831 Annex V.A8 by HPLC (High Performance Liquid Chromatography) on a phase inversion column (C18). HP1100; 50*4.6 Zorbax Eclipse Plus C18 1.8 micron; eluent A: acetonitrile (0.1% formic acid); eluent B: water (0.08% formic acid); linear gradient from 5% acetonitrile to 95% acetonitrile in 1.70 min, then 95% acetonitrile for a further 1.00 min; oven temperature 55° C.; flow: 2.0 ml/min. The mass detection is carried out via the mass detector Micromass ZQ2000 from Waters.
In the case of `CC(C)N(C)C(=O)c1cc(NC(=O)c2c(C(F)(F)F)c(C(F)(F)C(F)(F)F)nn2C)ccc1Cl` [Ik-35], the logP is on record as 3.73^b).

Take `Cn1nc(C(F)(F)C(F)(F)F)c(C(F)(F)F)c1C(=O)Nc1ccc(Cl)c(C(=O)NCC2(C)COC2)c1` [Ik-45]: the logP is listed as 2.98^b).

Turning to `CC(CC(F)(F)F)NC(=O)c1cc(NC(=O)c2c(C(F)(F)F)c(C(F)(F)C(F)(F)F)nn2C)ccc1Cl` (centres unmarked) [Ik-299], the logP is reported as 3.63^b).

As for `Cn1nc(C(F)(F)C(F)(F)F)c(C(F)(F)F)c1C(=O)Nc1ccc(Cl)c(C(=O)NC2CC2(F)F)c1` (centres unmarked) [Ik-6], the logP is 3.33^b).

In the case of `Cn1nc(C(F)(F)C(F)(F)F)c(C(F)(F)F)c1C(=O)Nc1ccc(Cl)c(C(=O)NCc2c(F)cccc2F)c1` [Ik-37], the logP is listed as 3.73^b).

Turning to `Cn1nc(C(F)(F)C(F)(F)F)c(C(F)(F)F)c1C(=O)Nc1ccc(Cl)c(C(=O)NC2CC=CC2)c1` [Ik-287], the logP is 3.63^b).

On to `Cn1nc(C(F)(F)C(F)(F)F)c(C(F)(F)F)c1C(=O)Nc1ccc(Cl)c(C(=O)NCc2ccccc2Cl)c1` [Ik-282], for which the logP is 4.05^b).

Turning to `Cc1cccc(CNC(=O)c2cc(NC(=O)c3c(C(F)(F)F)c(C(F)(F)C(F)(F)F)nn3C)ccc2Cl)c1` [Ik-304], the logP is on record as 3.94^b).

For the compound `CC(NC(=O)c1cc(NC(=O)c2c(C(F)(F)F)c(C(F)(F)C(F)(F)F)nn2C)ccc1Cl)C1(Cl)CC1` (centres unmarked) [Ik-288], the logP is 4.05^b).

On to `C#CC(C)NC(=O)c1cc(NC(=O)c2c(C(F)(F)F)c(C(F)(F)C(F)(F)F)nn2C)ccc1Cl` (centres unmarked) [Ik-293], for which the logP is on record as 3.28^b).

Turning to `COCC(C)(C#N)NC(=O)c1cc(NC(=O)c2c(C(F)(F)F)c(C(F)(F)C(F)(F)F)nn2C)ccc1Cl` (centres unmarked) [Ik-275], the logP is 3.37^b).

With `Cn1cc(C(F)(F)F)nc1C(NC(=O)c1cc(NC(=O)c2c(C(F)(F)F)c(C(F)(F)C(F)(F)F)nn2C)ccc1Cl)C(F)(F)F` (centres unmarked) [Ik-276], the logP is 4.00^b).

In the case of `Cn1nc(C(F)(F)C(F)(F)F)c(C(F)(F)F)c1C(=O)Nc1ccc(Cl)c(C(=O)NC2(C(F)(F)F)CC2)c1` [Ik-296], the logP is 3.58^b).

Take `C/C(Cl)=C/CNC(=O)c1cc(NC(=O)c2c(C(F)(F)F)c(C(F)(F)C(F)(F)F)nn2C)ccc1Cl` [Ik-295]: the logP is on record as 3.73^b).

As for `Cn1nc(C(F)(F)C(F)(F)F)c(C(F)(F)F)c1C(=O)Nc1ccc(Cl)c(C(=O)NCCC(F)(F)F)c1` [Ik-291], the logP is reported as 3.53^b).

For `CCC(NC(=O)c1cc(NC(=O)c2c(C(F)(F)F)c(C(F)(F)C(F)(F)F)nn2C)ccc1Cl)C(F)(F)F` (centres unmarked) [Ik-297], the logP is recorded as 3.89^b).

`Cn1nc(C(F)(F)C(F)(F)F)c(C(F)(F)F)c1C(=O)Nc1ccc(Cl)c(C(=O)NCC2CC2(C)C)c1` (centres unmarked) [Ik-46]: the logP is recorded as 4.11^b).

Turning to `Cn1nc(C(F)(F)C(F)(F)F)c(C(F)(F)F)c1C(=O)Nc1ccc(Cl)c(C(=O)NCCOCC(F)(F)F)c1` [Ik-281], the logP was 3.53^b).

`Cn1nc(C(F)(F)C(F)(F)F)c(C(F)(F)F)c1C(=O)Nc1ccc(Cl)c(C(=O)NCc2ccon2)c1` [Ik-43]: the logP is given as 3.02^b).

In the case of `Cn1nc(C(F)(F)C(F)(F)F)c(C(F)(F)F)c1C(=O)Nc1ccc(Cl)c(C(=O)NCC(C)(C)CF)c1` [Ik-42], the logP is given as 3.68^b).

For `Cn1nc(C(F)(F)C(F)(F)F)c(C(F)(F)F)c1C(=O)Nc1ccc(Cl)c(C(=O)NC2CC2c2ccccc2)c1` (centres unmarked) [Ik-47], the logP is recorded as 4.00^b).

Regarding `CC(NC(=O)c1cc(NC(=O)c2c(C(F)(F)F)c(C(F)(F)C(F)(F)F)nn2C)ccc1Cl)c1ccccc1` (centres unmarked) [Ik-38], the logP is recorded as 3.89^b).

In the case of `Cn1nc(C(F)(F)C(F)(F)F)c(C(F)(F)F)c1C(=O)Nc1ccc(Cl)c(C(=O)NC2CCCC2)c1` [Ik-39], the logP is 3.78^b).

For the compound `CN(C(=O)c1cc(NC(=O)c2c(C(F)(F)F)c(C(F)(F)C(F)(F)F)nn2C)ccc1Cl)C1CC1` [Ik-31], the logP was 3.51^b).

For the compound `Cn1nc(C(F)(F)C(F)(F)F)c(C(F)(F)F)c1C(=O)Nc1ccc(Cl)c(C(=O)NC(C)(C)C=C(Cl)Cl)c1` [Ik-44], the logP is listed as 4.28^b).
